In paper PMC10855388, “Small-Molecule-Directed Endogenous Regeneration of Visual Function in a Mammalian Retinal Degeneration Model” (International Journal of Molecular Sciences, 2024):

What was measured:
Test in all cases: KinaseProfiler in vitro kinase panel ([…] human kinases), single concentration […]
Format in all cases: biochemical
PKG1α = biological target: T1, PKG1α (Homo sapiens, UniProt Q13976)
T1 construct: gene PRKG1
T1 sequence (Q13976 2-671): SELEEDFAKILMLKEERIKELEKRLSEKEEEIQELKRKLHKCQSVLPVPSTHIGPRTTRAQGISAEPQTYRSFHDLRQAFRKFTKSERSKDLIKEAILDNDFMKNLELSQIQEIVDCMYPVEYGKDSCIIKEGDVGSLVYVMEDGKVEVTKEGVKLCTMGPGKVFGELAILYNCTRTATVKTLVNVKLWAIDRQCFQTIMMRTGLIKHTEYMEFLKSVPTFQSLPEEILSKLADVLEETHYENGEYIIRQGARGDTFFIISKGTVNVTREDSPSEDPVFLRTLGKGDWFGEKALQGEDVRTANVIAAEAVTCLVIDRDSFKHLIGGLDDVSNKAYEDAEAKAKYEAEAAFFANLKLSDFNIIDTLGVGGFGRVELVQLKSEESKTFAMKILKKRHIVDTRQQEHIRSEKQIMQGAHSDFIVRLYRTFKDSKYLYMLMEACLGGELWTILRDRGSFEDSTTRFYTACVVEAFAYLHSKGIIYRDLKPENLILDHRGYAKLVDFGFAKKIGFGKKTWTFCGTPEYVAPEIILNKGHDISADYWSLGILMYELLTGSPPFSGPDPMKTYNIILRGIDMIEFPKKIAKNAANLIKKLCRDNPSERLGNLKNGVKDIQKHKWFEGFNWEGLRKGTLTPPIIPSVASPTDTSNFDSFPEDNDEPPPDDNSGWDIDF

p70S6K = biological target: T2, p70S6K (Homo sapiens, UniProt P23443)
T2 construct: gene RPS6KB1

ROCK-I = biological target: T3, ROCK-I (Homo sapiens, UniProt Q13464)
T3 construct: gene ROCK1

PKA = biological target: T4, PKA (Homo sapiens, UniProt P17612)
T4 construct: gene PRKACA

Measured: inhibition at 5 µM

T3 sequence (Q13464 2-1354): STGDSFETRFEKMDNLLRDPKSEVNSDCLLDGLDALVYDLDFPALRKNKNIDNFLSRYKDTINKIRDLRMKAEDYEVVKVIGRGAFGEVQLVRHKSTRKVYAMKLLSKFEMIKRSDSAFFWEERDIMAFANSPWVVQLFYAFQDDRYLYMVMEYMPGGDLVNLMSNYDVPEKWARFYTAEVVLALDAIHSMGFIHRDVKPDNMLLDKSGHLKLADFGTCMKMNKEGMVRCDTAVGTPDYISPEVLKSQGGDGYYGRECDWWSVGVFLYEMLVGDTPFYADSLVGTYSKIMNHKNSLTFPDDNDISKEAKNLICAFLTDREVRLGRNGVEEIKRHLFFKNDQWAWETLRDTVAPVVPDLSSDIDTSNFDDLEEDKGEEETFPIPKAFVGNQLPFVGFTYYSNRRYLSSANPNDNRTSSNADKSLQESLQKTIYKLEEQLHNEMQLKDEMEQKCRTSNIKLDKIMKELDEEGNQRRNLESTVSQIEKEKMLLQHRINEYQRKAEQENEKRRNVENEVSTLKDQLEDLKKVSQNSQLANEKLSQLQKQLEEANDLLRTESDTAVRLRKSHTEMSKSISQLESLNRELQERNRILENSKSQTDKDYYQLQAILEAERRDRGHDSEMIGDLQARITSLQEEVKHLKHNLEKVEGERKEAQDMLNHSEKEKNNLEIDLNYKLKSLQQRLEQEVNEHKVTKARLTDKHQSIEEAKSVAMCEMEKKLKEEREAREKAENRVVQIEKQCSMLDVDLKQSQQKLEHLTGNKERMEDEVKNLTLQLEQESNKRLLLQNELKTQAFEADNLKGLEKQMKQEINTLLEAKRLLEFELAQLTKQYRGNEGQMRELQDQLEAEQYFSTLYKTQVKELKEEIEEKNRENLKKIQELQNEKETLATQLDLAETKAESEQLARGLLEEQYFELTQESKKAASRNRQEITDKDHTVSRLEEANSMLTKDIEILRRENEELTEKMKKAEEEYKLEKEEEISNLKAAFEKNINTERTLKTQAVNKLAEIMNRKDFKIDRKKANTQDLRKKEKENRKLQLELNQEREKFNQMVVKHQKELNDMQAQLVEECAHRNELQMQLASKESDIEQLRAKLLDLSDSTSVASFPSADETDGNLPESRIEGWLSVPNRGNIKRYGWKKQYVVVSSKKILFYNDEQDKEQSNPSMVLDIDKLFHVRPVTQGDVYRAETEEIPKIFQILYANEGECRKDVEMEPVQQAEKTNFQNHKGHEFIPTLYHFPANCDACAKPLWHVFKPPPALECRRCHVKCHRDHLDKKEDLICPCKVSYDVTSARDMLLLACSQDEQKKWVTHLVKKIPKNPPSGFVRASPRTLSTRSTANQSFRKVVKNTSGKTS
T2 sequence (P23443 whole entry): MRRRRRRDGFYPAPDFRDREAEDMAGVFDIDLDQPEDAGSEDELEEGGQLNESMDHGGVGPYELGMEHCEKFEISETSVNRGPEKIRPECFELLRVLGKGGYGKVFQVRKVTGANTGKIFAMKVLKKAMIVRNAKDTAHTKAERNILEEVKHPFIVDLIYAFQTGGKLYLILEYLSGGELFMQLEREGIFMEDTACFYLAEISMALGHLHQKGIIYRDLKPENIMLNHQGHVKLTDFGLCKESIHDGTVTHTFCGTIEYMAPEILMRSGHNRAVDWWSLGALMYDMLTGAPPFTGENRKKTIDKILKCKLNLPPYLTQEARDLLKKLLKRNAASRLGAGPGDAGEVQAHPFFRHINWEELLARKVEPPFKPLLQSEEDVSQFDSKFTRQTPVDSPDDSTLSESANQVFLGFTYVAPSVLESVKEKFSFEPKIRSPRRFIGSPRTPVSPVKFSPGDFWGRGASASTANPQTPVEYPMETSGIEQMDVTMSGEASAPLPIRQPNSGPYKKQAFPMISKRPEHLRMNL

COc1cc(NC(=O)C2COc3ccccc3C2)ccc1-c1cnco1 (stereo not shown) [CompA, CompoundA]
> 75%: all assays above
